Experimental findings from article PMC3478282, “Probing the Putative Active Site of YjdL: An Unusual Proton-Coupled Oligopeptide Transporter from E. coli” (PLoS ONE, 2012) are described below.

Substitutions are numbered along the chain they refer to. Residues, ends and D or L forms follow the SMILES beside them.

Holding throughout (assay type): cell-based, E. coli
The target of test [1] is T1, YjdL Tyr25Phe (Escherichia coli, UniProt P39276, Y25F).
T1 construct: expressed in transfected cells; host or cells: E. coli BL21(DE3)pLysS, pTTQ18-yjdL mutant (QuikChange)
T1 sequence (P39276 1-485 Y25F): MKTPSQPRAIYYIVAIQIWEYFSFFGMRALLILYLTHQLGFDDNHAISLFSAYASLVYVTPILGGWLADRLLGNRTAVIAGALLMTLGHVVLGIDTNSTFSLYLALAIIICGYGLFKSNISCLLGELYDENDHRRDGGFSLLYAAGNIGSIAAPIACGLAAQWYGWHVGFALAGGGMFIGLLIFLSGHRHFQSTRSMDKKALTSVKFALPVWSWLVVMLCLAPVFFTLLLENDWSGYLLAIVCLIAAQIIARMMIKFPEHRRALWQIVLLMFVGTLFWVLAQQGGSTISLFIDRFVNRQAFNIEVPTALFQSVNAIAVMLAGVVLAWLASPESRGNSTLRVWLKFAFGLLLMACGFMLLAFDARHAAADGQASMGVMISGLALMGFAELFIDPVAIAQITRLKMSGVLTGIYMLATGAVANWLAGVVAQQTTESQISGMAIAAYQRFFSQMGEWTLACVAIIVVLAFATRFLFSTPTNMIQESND
Put plainly: β-Ala-Lys(AMCA) uptake and inhibition assay, YjdL Tyr25Phe. The following applies: for IC50: 0.2 mM β-Ala-Lys(AMCA), 5 min incubation, pH 6.5, ±SEM, n≥3. The procedure:
(§1) Plasmids were transformed into E. coli BL21(DE3)pLysS cells by heat shock and transformants were selected on agar plates containing 100 µg/mL ampicillin and 34 µg/mL chloramphenicol. Single transformants were inoculated into 2 mL LB-media with antibiotics as above and grown overnight. The cultures were diluted 1∶50 in 5 mL LB-media with antibiotics as above, and at an OD600 of 0.5–0.8 protein expression was induced by the addition of 1 mM isopropyl β-D-1-thiogalactopyranoside (IPTG). The cells were harvested after three hours of induction by centrifugation and resuspended in uptake buffer (50 mM MES pH 6.5, 140 mM NaCl, 5.4 mM KCl, 1.8 mM CaCl2, 0.8 mM MgSO4, and 5 mM glucose).
(§2) Uptake assays were performed as previously described, [20]. In a final assay volume of 100 µL; 0.2 mM β-Ala-Lys-N-7-amino-4-methylcoumarin-3-acetic acid (β-Ala-Lys(AMCA), Biotrend) (10 µL) and various concentrations of ligands (purchased from Bachem or Sigma-Aldrich) or uptake buffer (50 µL) were incubated with bacterial cell suspension (OD600 = 10, 40 µL) at 37°C. After 5 min, the uptake was stopped by addition of 500 µL ice-cold uptake buffer followed by immediate centrifugation and washing twice in ice-cold uptake buffer. Finally the cell pellet was resuspended in 100 µL uptake buffer, and the uptake was quantified by fluorescence measurements (excitation at 340 nm and emission at 460 nm) on a Safire 2 fluorimeter. Non-specific uptake was measured as described above on IPTG-induced E. coli BL21(DE3)pLysS cells harboring the empty pTTQ18 vector. All uptake assay experiments were reproduced at least three times independently and data analyses were performed using GraphPad Prism ver. 5.

Test [2] deals with T2, YjdL Tyr58Phe (Escherichia coli, UniProt P39276, Y58F).
T2 construct: expressed in transfected cells; host or cells: E. coli BL21(DE3)pLysS, pTTQ18-yjdL mutant (QuikChange)
T2 sequence (P39276 1-485 Y58F): T1 sequence (P39276 1-485 Y25F) with F25Y, Y58F
Put plainly: β-Ala-Lys(AMCA) uptake and inhibition assay, YjdL Tyr58Phe. The following applies: for IC50: 0.5 mM β-Ala-Lys(AMCA), 15 min incubation, pH 6.5, ±SEM, n≥3, read-out: IC50 (inhibition of β-Ala-Lys(AMCA) uptake), Tyr58Phe b. The procedure:
as §1, §2

Test [3] has as its target T3, YjdL Trp278Phe (Escherichia coli, UniProt P39276, W278F).
T3 construct: host or cells: E. coli BL21(DE3)pLysS
T3 sequence (P39276 1-485 W278F): T1 sequence (P39276 1-485 Y25F) with F25Y, W278F
Put plainly: β-Ala-Lys(AMCA) uptake and inhibition assay, YjdL Trp278Phe. The following applies: 0.2 mM β-Ala-Lys(AMCA), 5 min incubation, pH 6.5; ±SEM, n≥3. The procedure:
as §1, §2

In test [4] the target is T4, YjdL Ala281Phe (Escherichia coli, UniProt P39276, A281F).
T4 construct: host or cells: E. coli BL21(DE3)pLysS
T4 sequence (P39276 1-485 A281F): T1 sequence (P39276 1-485 Y25F) with F25Y, A281F
Put plainly: β-Ala-Lys(AMCA) uptake and inhibition assay, YjdL Ala281Phe. The following applies: for IC50: 0.2 mM β-Ala-Lys(AMCA), 5 min incubation, pH 6.5, ±SEM, n≥3. The method, then:
as §1, §2

Setting [5] is: 0.2 mM, 5 min, pH 6.5 (Figure 3).

Usually IC50 stands for the concentration that inhibits the measured activity by half. In the case of `C[C@H](N)C(=O)N[C@@H](C)C(=O)O` [Ala-Ala] (H-Ala-Ala-OH), the IC50 in test [1] was greater than 50 mM; in test [2], 28.1 ± 5 mM; in test [3], 9.9 ± 1 mM; in test [4], greater than 50 mM.
In the case of `C[C@H](N)C(=O)N[C@@H](CCCCN)C(=O)O` [Ala-Lys] (H-Ala-Lys-OH), the IC50 in test [1] is 0.4 ± 0.08 mM; in test [2], greater than 50 mM; in test [3], 0.38 mM; in test [4], 0.26 ± 0.02 mM.
With `C[C@H](NC(=O)[C@@H](N)Cc1ccc(O)cc1)C(=O)O` [Tyr-Ala], the IC50 came to 33.7 ± 3.9 mM in test [1], 24.1 ± 2.8 mM in test [2], 2.8 ± 0.4 mM in test [3] and 33.2 ± 3.4 mM in test [4].
On to “β-Ala-Lys-N-7-amino-4-methylcoumarin-3-acetic acid [β-Ala-Lys(AMCA)]”, for which the “β-Ala-Lys(AMCA) uptake level, YjdL Tyr25Phe” value in test [1] (setting [5]) was determined as 27%. Also, the “β-Ala-Lys(AMCA) uptake level, YjdL Tyr58Phe” value in test [2] (setting [5]) was determined as 7%. Moreover, the “increase of β-Ala-Lys(AMCA) uptake compared to WT-YjdL, Ala281Phe” value in test [4] (setting [5]) is given as roughly 3 fold.
